This is an account of results in ChEMBL document CHEMBL3120114, “Synthesis and evaluation of new coumarin derivatives as potential atypical antipsychotics” (Eur J Med Chem, 2014).

The target in series [1] is T1, 5-hydroxytryptamine receptor 1A (Rattus norvegicus, UniProt P19327).
T1 sequence (P19327 whole entry): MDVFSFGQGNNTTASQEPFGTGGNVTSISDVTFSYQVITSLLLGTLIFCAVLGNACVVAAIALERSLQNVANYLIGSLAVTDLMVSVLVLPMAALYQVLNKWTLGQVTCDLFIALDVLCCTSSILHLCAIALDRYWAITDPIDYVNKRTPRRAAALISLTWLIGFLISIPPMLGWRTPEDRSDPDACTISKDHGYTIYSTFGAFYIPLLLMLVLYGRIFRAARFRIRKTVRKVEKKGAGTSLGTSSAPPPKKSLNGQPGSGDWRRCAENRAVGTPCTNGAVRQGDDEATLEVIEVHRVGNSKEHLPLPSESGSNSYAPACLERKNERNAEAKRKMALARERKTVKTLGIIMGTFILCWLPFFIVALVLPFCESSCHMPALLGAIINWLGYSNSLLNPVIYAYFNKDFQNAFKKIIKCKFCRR
Nature of the series: Displacement of [3H]8-OH-DPAT from 5HT1A receptor in Sprague-Dawley rat brain cortex homogenate after 30 mins by liquid scintillation counting. Type of series: tissue-based.

A further series concerns the target D(2) dopamine receptor (Rattus norvegicus, UniProt P61169). Nature of the series: Displacement of [3H]spiperone from dopamine D2 receptor in Sprague-Dawley rat striatum homogenate after 30 mins by liquid scintillation counting.
The target in series [2] is 5-hydroxytryptamine receptor 2A (Rattus norvegicus, UniProt P14842). Description: Displacement of [3H]Ketanserin from 5HT2A receptor in Sprague-Dawley rat brain cortex homogenate after 30 mins by liquid scintillation counting. Type of series: tissue-based.
For series [3], the system named is Mus musculus. Nature of the series: Antipsychotic activity in po dosed Kunming mouse assessed as reduction in MK801-induced hyperactivity compound administered 30 mins prior to MK801 challenge measured for 90 mins post challenge. The class given is functional.
Series [4] relates to Mus musculus. Nature of the series: Toxicity in po dosed Kunming mouse assessed as induction of catalepsy. The class given is organism-based. Conditions: in vivo.
The nature of series [5]: in vivo. Conditions: Kunming, mouse, po.
Description: Therapeutic index, ratio of ED50 for induction of catalepsy to ED50 for antipsychotic activity in po dosed Kunming mouse assessed as reduction in MK801-induced hyperactivity
Series [6] can be described thus: in vivo. Conditions: Kunming, mouse, po. The source holds these as a separate data set.
Description: Therapeutic index, ratio of ED50 for induction of catalepsy to ED50 for antipsychotic activity in po dosed Kunming mouse assessed as reversal of apomorphine-induced cage climbing response
For series [7], the system named is Mus musculus. Description: Antipsychotic activity in po dosed Kunming mouse assessed as reversal of apomorphine-induced cage climbing response compound administered 30 mins prior to apomorphine challenge measured for 30 mins post challenge. Type of series: functional.
The next series concerns the target D(3) dopamine receptor (Rattus norvegicus, UniProt P19020). Description: Displacement of [3H]7-OH-DPA from dopamine D3 receptor in Sprague-Dawley rat olfactory tubercle homogenate after 60 mins by liquid scintillation counting. The class given is tissue-based.
In another series the target is Histamine H1 receptor (Cavia porcellus, UniProt P31389). Nature of the series: Displacement of [3H]mepyramine from histamine H1 receptor in guinea pig cerebellum homogenate after 60 mins by liquid scintillation counting. The class given is tissue-based.
Series [8] can be described thus: Acute toxicity in po dosed Kunming mouse assessed as survival measured after 24 hrs. The class given is organism-based. Conditions: in vivo.

Sequence of D(3) dopamine receptor (P19020 whole entry): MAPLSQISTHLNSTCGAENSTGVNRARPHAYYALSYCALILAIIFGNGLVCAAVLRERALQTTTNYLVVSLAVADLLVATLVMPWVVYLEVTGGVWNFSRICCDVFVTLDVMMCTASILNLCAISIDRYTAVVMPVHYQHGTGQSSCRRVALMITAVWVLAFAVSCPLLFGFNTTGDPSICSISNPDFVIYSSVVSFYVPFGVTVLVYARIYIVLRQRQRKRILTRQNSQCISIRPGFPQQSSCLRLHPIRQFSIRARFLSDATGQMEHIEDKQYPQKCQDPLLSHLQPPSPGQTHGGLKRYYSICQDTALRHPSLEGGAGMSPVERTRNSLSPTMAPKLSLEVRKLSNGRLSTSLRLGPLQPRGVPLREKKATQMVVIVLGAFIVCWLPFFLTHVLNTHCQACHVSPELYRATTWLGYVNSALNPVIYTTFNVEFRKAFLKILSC
Sequence of 5-hydroxytryptamine receptor 2A (P14842 whole entry): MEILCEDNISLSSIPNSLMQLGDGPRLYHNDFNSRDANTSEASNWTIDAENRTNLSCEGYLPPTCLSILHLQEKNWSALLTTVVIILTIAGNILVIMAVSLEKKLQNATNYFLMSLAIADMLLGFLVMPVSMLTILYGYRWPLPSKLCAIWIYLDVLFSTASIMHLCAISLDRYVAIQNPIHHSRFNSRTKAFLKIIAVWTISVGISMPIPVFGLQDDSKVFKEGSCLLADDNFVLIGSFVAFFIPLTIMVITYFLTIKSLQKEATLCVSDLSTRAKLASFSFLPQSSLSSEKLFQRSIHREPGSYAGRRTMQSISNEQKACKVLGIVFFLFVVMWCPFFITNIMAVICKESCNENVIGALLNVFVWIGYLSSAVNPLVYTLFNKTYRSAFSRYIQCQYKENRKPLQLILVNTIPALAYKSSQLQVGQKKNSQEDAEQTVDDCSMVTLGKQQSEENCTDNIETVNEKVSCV
Sequence of Histamine H1 receptor (P31389 whole entry): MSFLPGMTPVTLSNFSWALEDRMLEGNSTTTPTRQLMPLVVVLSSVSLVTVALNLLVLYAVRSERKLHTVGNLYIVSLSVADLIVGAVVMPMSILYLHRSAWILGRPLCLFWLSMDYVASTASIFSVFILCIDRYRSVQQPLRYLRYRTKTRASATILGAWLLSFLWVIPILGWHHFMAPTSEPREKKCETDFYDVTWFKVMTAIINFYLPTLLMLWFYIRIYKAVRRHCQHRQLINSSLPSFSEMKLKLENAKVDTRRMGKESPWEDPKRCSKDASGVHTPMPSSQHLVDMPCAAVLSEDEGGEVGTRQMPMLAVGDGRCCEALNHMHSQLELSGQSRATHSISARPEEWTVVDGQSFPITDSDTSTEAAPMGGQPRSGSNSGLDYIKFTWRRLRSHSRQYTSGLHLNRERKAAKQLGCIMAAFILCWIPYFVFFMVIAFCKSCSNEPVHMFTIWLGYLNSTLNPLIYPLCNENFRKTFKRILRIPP
Sequence of D(2) dopamine receptor (P61169 whole entry): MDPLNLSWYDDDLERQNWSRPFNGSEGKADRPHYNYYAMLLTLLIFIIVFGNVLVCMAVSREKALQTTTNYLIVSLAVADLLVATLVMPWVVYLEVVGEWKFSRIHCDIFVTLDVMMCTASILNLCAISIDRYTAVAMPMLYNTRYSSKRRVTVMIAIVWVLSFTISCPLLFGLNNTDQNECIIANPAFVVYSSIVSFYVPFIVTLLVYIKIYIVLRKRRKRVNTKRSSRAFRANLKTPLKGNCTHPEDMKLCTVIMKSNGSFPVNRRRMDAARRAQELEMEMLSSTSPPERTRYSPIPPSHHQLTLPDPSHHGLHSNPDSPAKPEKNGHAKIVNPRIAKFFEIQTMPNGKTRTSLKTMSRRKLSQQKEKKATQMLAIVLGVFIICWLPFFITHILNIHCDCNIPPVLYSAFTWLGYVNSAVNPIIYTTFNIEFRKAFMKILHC

Take `O=c1oc2cc(OCCCCN3CCC(c4noc5cc(F)ccc45)CC3)c(Cl)cc2c2c1CCC2`: the Ki in series [1] stood at 140 nM; at D(2) dopamine receptor it was 146 nM; in series [2], 249 nM.

In the case of `O=c1oc2cc(OCCCCN3CCC(c4noc5cc(F)ccc45)CC3)ccc2c2c1CCCC2`, the Ki in series [1] was over 10000 nM; at D(2) dopamine receptor, 624 nM; in series [2] it was 126 nM.

As to `O=c1oc2cc(OCCCCN3CCN(c4ccccn4)CC3)ccc2c2c1CCC2`, the inhibition constant (Ki) is 1260 nM in series [1], over 10000 nM at D(2) dopamine receptor and 1400 nM in series [2].

In the case of `COc1ccccc1N1CCN(CCCCOc2ccc3c4c(c(=O)oc3c2C)CCC4)CC1`, the inhibitory constant (Ki) came out at 349 nM in series [1], 570 nM at D(2) dopamine receptor and 175 nM in series [2].

`O=C(CCCN1CCC(O)(c2ccc(Cl)cc2)CC1)c1ccc(F)cc1` [HALOPERIDOL]: the ED50 came out at 0.16 mg/kg in the series with Mus musculus [3], 0.38 mg/kg in the series with Mus musculus [4] and 0.14 mg/kg in the series with Mus musculus [7]. Further, the selectivity ratio in the series “in vivo [5]” is 2.38; in the series “in vivo [6]”, 2.71.

Regarding `O=c1oc2cc(OCCCCN3CCN(c4ccccc4)CC3)ccc2c2c1CCC2`, the Ki in series [1] is 56 nM; on D(2) dopamine receptor it was over 10000 nM; in series [2], 59.2 nM.

For the compound `COc1ccccc1N1CCN(CCCCOc2ccc3c4c(c(=O)oc3c2)CCCC4)CC1`, the Ki in [1] came to 1120 nM; on D(2) dopamine receptor it was 757 nM; in series [2] it was 1030 nM.

With `Cc1cccc(N2CCN(CCCCOc3ccc4c5c(c(=O)oc4c3)CCC5)CC2)c1C`, the figures for the Ki (in series [1]; at D(2) dopamine receptor; in [2]) were 22.1 nM, 1600 nM and 11.7 nM, respectively.

Take `O=c1oc2cc(OCCCN3CCC(c4noc5cc(F)ccc45)CC3)ccc2c2c1CCC2`: the values for the Ki (in [1]; on D(2) dopamine receptor; in [2]) were over 10000 nM, over 10000 nM and 188 nM, respectively.

For `O=c1oc2cc(OCCCCN3CCC(c4nc5ccccc5s4)CC3)ccc2c2c1CCC2`, the results for the Ki (in series [1]; at D(2) dopamine receptor; in [2]) were 1600 nM, over 10000 nM and 1870 nM, respectively.

Regarding `O=c1oc2cc(OCCCCCN3CCC(c4noc5cc(F)ccc45)CC3)ccc2c2c1CCC2`, the values for the Ki (in [1]; on D(2) dopamine receptor; in series [2]) were 1050 nM, 698 nM and 426 nM, respectively.

Turning to `O=c1oc2cc(OCCCCN3CCN(c4nsc5ccccc45)CC3)ccc2c2c1CCC2`, the inhibition constant Ki amounted to 969 nM in series [1] and 653 nM in series [2].

Turning to `COc1ccc(N2CCN(CCCCOc3ccc4c5c(c(=O)oc4c3)CCC5)CC2)cc1`, the Ki is 1240 nM in [1], over 10000 nM on D(2) dopamine receptor and over 10000 nM in [2].

For `O=c1oc2c(Cl)c(OCCCCN3CCC(c4noc5cc(F)ccc45)CC3)ccc2c2c1CCC2`, the Ki in series [1] amounted to 11.4 nM; on D(2) dopamine receptor it was 18.9 nM; at D(3) dopamine receptor, 13.9 nM; in [2], 5.3 nM; at Histamine H1 receptor, 13.6 nM.

As for `COc1ccccc1N1CCN(CCCCOc2cc3oc(=O)c4c(c3cc2Cl)CCC4)CC1`, the Ki in series [1] is 84.8 nM; at D(2) dopamine receptor, over 10000 nM; in [2], 36.6 nM.

Consider `O=c1oc2cc(OCCCN3CCC(c4noc5cc(F)ccc45)CC3)ccc2c2ccccc12`, for which the Ki (in [1]; on D(2) dopamine receptor; in series [2]) was over 10000 nM throughout.

On to `CN1CCN(C2=Nc3cc(Cl)ccc3Nc3ccccc32)CC1` [CLOZAPINE], for which the figures for the ED50 in the series with Mus musculus [3], with Mus musculus [4] and with Mus musculus [7] were 2.25 mg/kg, 46.14 mg/kg and 3.97 mg/kg, respectively.

As to `O=c1oc2cc(OCCCCN3CCN(c4ccc(F)cc4)CC3)ccc2c2c1CCC2`, the Ki is 28.9 nM in series [1], over 10000 nM at D(2) dopamine receptor and 16.5 nM in [2].

For the compound `O=c1oc2cc(OCCCCN3CCN(c4cccc(C(F)(F)F)c4)CC3)ccc2c2c1CCC2`, the Ki is 19.3 nM in series [1], over 10000 nM at D(2) dopamine receptor and 174 nM in series [2].

In the case of `O=c1oc2cc(OCCCCN3CCC(c4noc5cc(F)ccc45)CC3)ccc2c2c1CCC2`, the inhibition constant Ki in series [1] was 47.5 nM; at D(2) dopamine receptor, 24.4 nM; at D(3) dopamine receptor, 110 nM; in [2], 13.1 nM; at Histamine H1 receptor, 21.3 nM.

As for `COc1cccc(N2CCN(CCCCOc3ccc4c5c(c(=O)oc4c3)CCC5)CC2)c1`, the Ki in series [1] is 22.4 nM; on D(2) dopamine receptor, 1060 nM; in [2], 895 nM.

For the compound `O=c1oc2cc(OCCCCN3CCC(c4nc5ccccc5o4)CC3)ccc2c2c1CCC2`, the inhibition constant Ki in [1] was 26.8 nM; at D(2) dopamine receptor, 1890 nM; in [2], 16.2 nM.

As to `COc1ccccc1N1CCN(CCCCOc2ccc3c4c(c(=O)oc3c2)CCC4)CC1`, the Ki in [1] worked out at 0.2 nM; at D(2) dopamine receptor, 5.6 nM; on D(3) dopamine receptor, 178 nM; in series [2], 3.9 nM; on Histamine H1 receptor, 699 nM.

For the compound `COc1ccccc1N1CCN(CCCCOc2ccc3c4c(c(=O)oc3c2Cl)CCC4)CC1`, the Ki is 157 nM in [1], 159 nM at D(2) dopamine receptor and 105 nM in series [2].

In the case of `O=c1oc2cc(OCCCCN3CCC(c4noc5cc(F)ccc45)CC3)ccc2c2ccccc12`, the Ki (in series [1]; on D(2) dopamine receptor; in series [2]) was over 10000 nM in each case.

In the case of `Cc1nc2n(c(=O)c1CCN1CCC(c3noc4cc(F)ccc34)CC1)CCCC2` [RISPERIDONE], the median effective dose (ED50) is 0.017 mg/kg with Mus musculus [3], 0.43 mg/kg in the series on Mus musculus [4] and 0.02 mg/kg in the series on Mus musculus [7].

With `Cc1c(OCCCCN2CCC(c3noc4cc(F)ccc34)CC2)ccc2c3c(c(=O)oc12)CCC3`, the Ki in series [1] is 7.8 nM; at D(2) dopamine receptor it was 12.7 nM; at D(3) dopamine receptor, 13.6 nM; in series [2], 2.2 nM; at Histamine H1 receptor, 1830 nM. Besides, the Activity result in the series with Mus musculus [3] and with Mus musculus [7] was “Dose-dependent effect” each time. The 50% effective dose (ED50) in the series with Mus musculus [3] was found to be 0.31 mg/kg; with Mus musculus [4], 66.47 mg/kg; with Mus musculus [7], 0.61 mg/kg. The selectivity ratio in the series “in vivo [5]” is 214; in the series “in vivo [6]”, 109. In addition, the 50% lethal dose (LD50) at 24 h in series [8] is over 2000 mg/kg.

For the compound `COc1ccccc1N1CCN(CCCOc2ccc3c4c(c(=O)oc3c2)CCC4)CC1`, the Ki was 640 nM in series [1], over 10000 nM at D(2) dopamine receptor and 618 nM in series [2].

As for `O=c1oc2cc(OCCCCN3CCN(c4cccc(Cl)c4Cl)CC3)ccc2c2c1CCC2`, the results for the Ki (in [1]; at D(2) dopamine receptor; in series [2]) were 68 nM, 1900 nM and 79.3 nM, respectively.
